Results from patent US20070123465A1, “Oligomeric peptides and their use for the treatment of hiv infections” (IPF PHARMACEUTICALS GMBH, priority 2004, published 2007).
Bridge positions count the residues as written; N and C are the ends. Square brackets hold non-standard residues; d marks the D form. Peptide text beside a SMILES is read from it. I, II: the chains in the order shown. dTic = O=C(O)[C@H]1Cc2ccccc2CN1; NMeL = CN[C@@H](CC(C)C)C(=O)O

system: HIV-1 NL4-3; assay type: cell-based; conditions: X4-tropic HIV-1 NL4-3, P4-CCR5 cells
Description: P4-CCR5 indicator cells (Charneau et al., 1994; Journal of Molecular Biology 241, 651-662) expressing the primary CD4 receptor and both major HIV-1 entry cofactors CXCR4 and CCR5, were used to evaluate whether the oligomeric peptides according to the invention are potent inhibitors of HIV-1 infection. These cells contain the β-galactosidase reporter gene under the control of the HIV-1 promoter. Thus, activation of the β-galactosidase reporter gene allows to measure the efficiency of HIV-1 infection and thus to quantitate the potency of HIV-1 inhibitors (Detheux M. et al., 2000; Journal of Experimental Medicine 192, 1501-1508; Muinch et al., 2002; Antimicrobial Agents and Chemotherapy 46, 982-990).
To perform a typical infection assay, P4-CCR5 cells (Charneau et al., 1994; Journal of Molecular Biology 241, 651-662; Charneau et al., Virology. 1994 205, 247-53) were kept in RPMI 1640 medium supplemented with 10 volume % FCS. This cell line coexpresses CD4 and both HIV-1 coreceptors CCR5 and CXCR4 and contains the β-galactosidase gene under the control of the HIV-1 promoter. Virus stocks were generated by the calcium coprecipitation method as described (Detheux et al., 3 Exp Med. 192:1501-8; 2000), and the p24 antigen levels were quantitated with an HIV p24 ELISA kit obtained through the NIH AIDS Reagent Program. Cells were seeded in flat-bottomed 96-well dishes, cultured overnight, and incubated with the different doses of peptide for 2 h before infection with virus containing 1 ng of p24 antigen in a total volume of […] of medium. After overnight incubation, cells were washed twice and cultivated in fresh culture medium without inhibitory peptide. Three days after infection the cells were lysed, and infectivity was quantitated using the Galacto-Light Plus™ chemiluminescence reporter assay kit (Tropix, Bedford, Mass.) as recommended by the manufacturer. All infections were performed in quintuplicate.
Below, the IC50 values of peptides of the invention obtained from the described infection assay are provided.

First: CC[C@H](C)[C@H](NC(=O)[C@H](C)NC(=O)[C@H](CCC(=O)O)NC(=O)[C@H](CC(C)C)NC)C(=O)N1CCC[C@H]1C(=O)N[C@@H](CSSC[C@H](NC(=O)[C@@H]1CCCN1C(=O)[C@@H](NC(=O)[C@H](C)NC(=O)[C@H](CCC(=O)O)NC(=O)[C@H](CC(C)C)NC)[C@@H](C)CC)C(=O)N[C@@H](CO)C(=O)N[C@H](C(=O)N1CCC[C@H]1C(=O)N1CCC[C@H]1C(=O)N[C@@H](CCC(=O)O)C(=O)N[C@@H](Cc1ccccc1)C(=O)N[C@@H](CC(C)C)C(=O)N[C@@H](Cc1ccccc1)C(=O)NCC(=O)N[C@@H](CCCCN)C(=O)N1CCC[C@H]1C(=O)N[C@@H](Cc1ccccc1)C(=O)N[C@H](C(=O)N[C@@H](Cc1ccccc1)C(=O)O)C(C)C)[C@@H](C)CC)C(=O)N[C@@H](CO)C(=O)N[C@H](C(=O)N1CCC[C@H]1C(=O)N1CCC[C@H]1C(=O)N[C@@H](CCC(=O)O)C(=O)N[C@@H](Cc1ccccc1)C(=O)N[C@@H](CC(C)C)C(=O)N[C@@H](Cc1ccccc1)C(=O)NCC(=O)N[C@@H](CCCCN)C(=O)N1CCC[C@H]1C(=O)N[C@@H](Cc1ccccc1)C(=O)N[C@H](C(=O)N[C@@H](Cc1ccccc1)C(=O)O)C(C)C)[C@@H](C)CC [VIR-712] (I: H-[NMeL]EAIPCSIPPEFLFGKPFVF-OH / II: H-[NMeL]EAIPCSIPPEFLFGKPFVF-OH; disulfide I:6-II:6; C-terminus assumed)
Second: CC[C@H](C)[C@H](NC(=O)[C@H](C)NC(=O)[C@H](CCC(=O)O)NC(=O)[C@@H](N)CC(C)C)C(=O)N1CCC[C@H]1C(=O)N[C@@H](CCSC)C(=O)N[C@@H](CSSC[C@H](NC(=O)[C@H](CCSC)NC(=O)[C@@H]1CCCN1C(=O)[C@@H](NC(=O)[C@H](C)NC(=O)[C@H](CCC(=O)O)NC(=O)[C@@H](N)CC(C)C)[C@@H](C)CC)C(=O)N[C@H](C(=O)N1CCC[C@H]1C(=O)N1CCC[C@H]1C(=O)N[C@@H](CCC(=O)O)C(=O)N[C@@H](Cc1ccccc1)C(=O)N[C@@H](CC(C)C)C(=O)N[C@@H](Cc1ccccc1)C(=O)NCC(=O)N[C@@H](CCCCN)C(=O)N1CCC[C@H]1C(=O)N[C@@H](Cc1ccccc1)C(=O)N[C@H](C(=O)N[C@@H](Cc1ccccc1)C(=O)O)C(C)C)[C@@H](C)CC)C(=O)N[C@H](C(=O)N1CCC[C@H]1C(=O)N1CCC[C@H]1C(=O)N[C@@H](CCC(=O)O)C(=O)N[C@@H](Cc1ccccc1)C(=O)N[C@@H](CC(C)C)C(=O)N[C@@H](Cc1ccccc1)C(=O)NCC(=O)N[C@@H](CCCCN)C(=O)N1CCC[C@H]1C(=O)N[C@@H](Cc1ccccc1)C(=O)N[C@H](C(=O)N[C@@H](Cc1ccccc1)C(=O)O)C(C)C)[C@@H](C)CC [VIR-577] (I: H-LEAIPMCIPPEFLFGKPFVF-OH / II: H-LEAIPMCIPPEFLFGKPFVF-OH; disulfide I:7-II:7)
The IC50 of the first is 17-fold lower: 195 nM for the first, 3270 nM for the second.

Going from `CC[C@H](C)[C@H](NC(=O)[C@H](CCCCN)NC(=O)[C@H](CCC(=O)O)NC(=O)[C@@H](N)CC(C)C)C(=O)N1CCC[C@H]1C(=O)N[C@@H](CSSC[C@H](NC(=O)[C@@H]1CCCN1C(=O)[C@@H](NC(=O)[C@H](CCCCN)NC(=O)[C@H](CCC(=O)O)NC(=O)[C@@H](N)CC(C)C)[C@@H](C)CC)C(=O)N[C@@H](CO)C(=O)N[C@H](C(=O)N1CCC[C@H]1C(=O)N1CCC[C@@H]1C(=O)N[C@@H](CCC(=O)O)C(=O)N[C@H](C(=O)N[C@@H](C)C(=O)N[C@@H](Cc1ccccc1)C(=O)N[C@@H](CC(N)=O)C(=O)N[C@@H](CCCCN)C(=O)N1CCC[C@H]1C(=O)N[C@@H](Cc1ccccc1)C(=O)N[C@H](C(=O)N[C@@H](Cc1ccccc1)C(=O)O)C(C)C)C(C)C)[C@@H](C)CC)C(=O)N[C@@H](CO)C(=O)N[C@H](C(=O)N1CCC[C@H]1C(=O)N1CCC[C@@H]1C(=O)N[C@@H](CCC(=O)O)C(=O)N[C@H](C(=O)N[C@@H](C)C(=O)N[C@@H](Cc1ccccc1)C(=O)N[C@@H](CC(N)=O)C(=O)N[C@@H](CCCCN)C(=O)N1CCC[C@H]1C(=O)N[C@@H](Cc1ccccc1)C(=O)N[C@H](C(=O)N[C@@H](Cc1ccccc1)C(=O)O)C(C)C)C(C)C)[C@@H](C)CC` [VIR-705, (LEKIPCSIPpEVAFNKPFVF)2] (I: H-LEKIPCSIP[dP]EVAFNKPFVF-OH / II: H-LEKIPCSIP[dP]EVAFNKPFVF-OH; disulfide I:6-II:6) to `CC[C@H](C)[C@H](NC(=O)[C@H](C)NC(=O)[C@H](CCC(=O)O)NC(=O)[C@@H](N)CC(C)C)C(=O)N1CCC[C@H]1C(=O)N[C@@H](CSSC[C@H](NC(=O)[C@@H]1CCCN1C(=O)[C@@H](NC(=O)[C@H](C)NC(=O)[C@H](CCC(=O)O)NC(=O)[C@@H](N)CC(C)C)[C@@H](C)CC)C(=O)NCC(=O)N[C@H](C(=O)N1CCC[C@H]1C(=O)N1CCC[C@@H]1C(=O)N[C@@H](CCC(=O)O)C(=O)N[C@H](C(=O)N1Cc2ccccc2C[C@@H]1C(=O)N[C@@H](Cc1ccccc1)C(=O)N[C@@H](CC(N)=O)C(=O)N[C@@H](CCCCN)C(=O)N1CCC[C@H]1C(=O)N[C@@H](Cc1ccccc1)C(=O)N[C@H](C(=O)N[C@@H](Cc1ccccc1)C(=O)O)C(C)C)C(C)C)[C@@H](C)CC)C(=O)NCC(=O)N[C@H](C(=O)N1CCC[C@H]1C(=O)N1CCC[C@@H]1C(=O)N[C@@H](CCC(=O)O)C(=O)N[C@H](C(=O)N1Cc2ccccc2C[C@@H]1C(=O)N[C@@H](Cc1ccccc1)C(=O)N[C@@H](CC(N)=O)C(=O)N[C@@H](CCCCN)C(=O)N1CCC[C@H]1C(=O)N[C@@H](Cc1ccccc1)C(=O)N[C@H](C(=O)N[C@@H](Cc1ccccc1)C(=O)O)C(C)C)C(C)C)[C@@H](C)CC` [VIR-706, (LEAIPCGIPpEV(D-Tic)FNKPFVF)2] (I: H-LEAIPCGIP[dP]EV[dTic]FNKPFVF-OH / II: H-LEAIPCGIP[dP]EV[dTic]FNKPFVF-OH; disulfide I:6-II:6; N-terminus and C-terminus assumed), the IC50 falls from 484 nM to 74 nM (6.5-fold).

For “I: H-LEAIPMSIPPEFLFGKPFVFKG-OH / II: H-LEAIPMSIPPEFLFGKPFVF (amide I:21-II:C) [VIR-574]”, the IC50 was 3080 nM.
